Where two headings read alike, the source gives them in different places.
How the values were obtained:
Assay in all cases: SelectScreen kinase specificity survey
Format in all cases: biochemical
[1] = target: T1, MAPK1 (ERK2) (Homo sapiens, UniProt P28482); conditions: estimated, abridged dose response curve, read-out: Kinase inhibitory activity EC50
T1 construct: purchased Invitrogen (SelectScreen platform)
Method in brief: (§1)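 Kinases from all classes (230 in total) are treated with a unique substrate and optical read-out system in the presence of 100 micromolar ATP. Uninhibited controls give the baseline phosphorylation signal, and graded compound in 5 steps yields the curve for Hill fitting.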

[2] = target: T2, CSK (Homo sapiens, UniProt P41240); conditions: estimated, abridged dose response curve, read-out: Kinase inhibitory activity EC50
T2 construct: purchased Invitrogen (SelectScreen service)
T2 sequence (P41240 whole entry): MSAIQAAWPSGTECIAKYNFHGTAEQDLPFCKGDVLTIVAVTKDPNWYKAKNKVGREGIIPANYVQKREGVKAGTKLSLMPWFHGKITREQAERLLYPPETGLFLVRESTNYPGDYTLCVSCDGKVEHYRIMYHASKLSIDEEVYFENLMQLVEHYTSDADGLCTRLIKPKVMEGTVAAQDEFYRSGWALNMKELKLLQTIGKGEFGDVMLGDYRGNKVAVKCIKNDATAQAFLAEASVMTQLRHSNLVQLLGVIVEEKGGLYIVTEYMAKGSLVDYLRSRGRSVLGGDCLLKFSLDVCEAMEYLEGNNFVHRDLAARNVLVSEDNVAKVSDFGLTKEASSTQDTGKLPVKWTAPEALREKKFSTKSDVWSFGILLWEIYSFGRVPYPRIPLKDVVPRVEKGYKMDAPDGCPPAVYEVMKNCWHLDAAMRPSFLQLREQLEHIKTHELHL
Method in brief: as §1

[3] = target: T3, PIM2 (Homo sapiens, UniProt Q9P1W9); conditions: estimated, abridged dose response curve, read-out: Kinase inhibitory activity EC50
T3 construct: purchased Invitrogen, Inc. (SelectScreen platform)
T3 sequence (Q9P1W9 whole entry): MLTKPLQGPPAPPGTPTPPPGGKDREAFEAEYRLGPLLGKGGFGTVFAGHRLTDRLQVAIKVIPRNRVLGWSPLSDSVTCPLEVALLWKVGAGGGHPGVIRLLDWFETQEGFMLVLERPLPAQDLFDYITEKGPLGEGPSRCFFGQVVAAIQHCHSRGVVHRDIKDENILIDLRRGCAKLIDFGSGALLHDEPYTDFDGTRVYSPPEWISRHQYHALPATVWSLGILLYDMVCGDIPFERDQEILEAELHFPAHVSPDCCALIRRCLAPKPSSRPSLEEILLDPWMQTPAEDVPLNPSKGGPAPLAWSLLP
Method in brief: as §1

[4] = target: T4, MAPK10 (JNK3) (Homo sapiens, UniProt P53779); conditions: estimated, abridged dose response curve, read-out: Kinase inhibitory activity EC50
T4 construct: purchased Invitrogen (SelectScreen platform)
Method in brief: as §1

[5] = target: T5, ABL1 G250E (Homo sapiens, UniProt P00519, G250E); conditions: estimated, abridged dose response curve, read-out: Kinase inhibitory activity EC50
T5 construct: purchased Invitrogen (SelectScreen platform)
Method in brief: as §1

[6] = target: T6, MAPK9 (JNK2) (Homo sapiens, UniProt P45984); conditions: estimated, abridged dose response curve, read-out: Kinase inhibitory activity EC50
T6 construct: purchased Invitrogen, Inc. (SelectScreen service)
T6 sequence (P45984 whole entry): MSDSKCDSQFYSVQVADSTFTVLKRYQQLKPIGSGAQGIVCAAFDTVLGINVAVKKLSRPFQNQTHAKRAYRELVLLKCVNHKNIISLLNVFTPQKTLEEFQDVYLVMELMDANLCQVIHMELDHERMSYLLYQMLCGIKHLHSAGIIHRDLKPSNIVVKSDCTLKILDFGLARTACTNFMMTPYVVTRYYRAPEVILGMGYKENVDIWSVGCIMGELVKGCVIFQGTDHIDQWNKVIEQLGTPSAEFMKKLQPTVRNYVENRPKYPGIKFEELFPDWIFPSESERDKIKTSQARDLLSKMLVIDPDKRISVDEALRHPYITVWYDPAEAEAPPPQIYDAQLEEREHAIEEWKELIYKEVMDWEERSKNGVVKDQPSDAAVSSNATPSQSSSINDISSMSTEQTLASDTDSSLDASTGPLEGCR
Method in brief: as §1

[7] = target: T7, EPHB4 (Homo sapiens, UniProt P54760); conditions: estimated, abridged dose response curve, read-out: Kinase inhibitory activity EC50
T7 construct: purchased Invitrogen (SelectScreen service)
Method in brief: as §1

[8] = target: T8, NTRK3 (TRKC) (Homo sapiens, UniProt Q16288)
T8 construct: purchased Invitrogen, Inc. (SelectScreen platform)
T8 sequence (Q16288 32-839): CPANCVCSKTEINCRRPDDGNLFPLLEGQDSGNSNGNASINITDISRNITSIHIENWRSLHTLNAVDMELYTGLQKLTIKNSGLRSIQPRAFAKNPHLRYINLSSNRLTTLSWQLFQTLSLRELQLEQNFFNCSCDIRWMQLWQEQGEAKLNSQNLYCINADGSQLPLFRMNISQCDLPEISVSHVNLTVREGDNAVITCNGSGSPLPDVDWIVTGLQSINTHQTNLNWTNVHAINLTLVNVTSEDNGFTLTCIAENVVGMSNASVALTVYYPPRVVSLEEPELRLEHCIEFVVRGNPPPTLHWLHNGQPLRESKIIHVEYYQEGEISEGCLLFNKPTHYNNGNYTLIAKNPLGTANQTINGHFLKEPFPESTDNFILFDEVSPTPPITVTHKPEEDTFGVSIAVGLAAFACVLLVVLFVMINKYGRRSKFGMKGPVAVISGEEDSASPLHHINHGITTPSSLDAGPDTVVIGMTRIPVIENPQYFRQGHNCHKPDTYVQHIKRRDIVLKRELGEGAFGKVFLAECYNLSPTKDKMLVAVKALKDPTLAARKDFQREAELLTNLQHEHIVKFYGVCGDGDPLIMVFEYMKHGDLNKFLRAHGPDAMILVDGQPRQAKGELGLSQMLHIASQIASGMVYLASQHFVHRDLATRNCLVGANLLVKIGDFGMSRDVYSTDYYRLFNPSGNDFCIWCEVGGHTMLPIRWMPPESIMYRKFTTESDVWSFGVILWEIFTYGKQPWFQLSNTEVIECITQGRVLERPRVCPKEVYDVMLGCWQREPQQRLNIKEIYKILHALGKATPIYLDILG
Method in brief: as §1

[9] = target: T9, PDGFRA V561D (Homo sapiens, UniProt P16234, V561D); conditions: estimated, abridged dose response curve, read-out: Kinase inhibitory activity EC50
T9 construct: purchased Invitrogen (SelectScreen platform)
Method in brief: as §1

[10] = target: T10, STK25 (YSK1) (Homo sapiens, UniProt O00506); conditions: estimated, abridged dose response curve, read-out: Kinase inhibitory activity EC50
T10 construct: purchased Invitrogen (SelectScreen platform)
T10 sequence (O00506 whole entry): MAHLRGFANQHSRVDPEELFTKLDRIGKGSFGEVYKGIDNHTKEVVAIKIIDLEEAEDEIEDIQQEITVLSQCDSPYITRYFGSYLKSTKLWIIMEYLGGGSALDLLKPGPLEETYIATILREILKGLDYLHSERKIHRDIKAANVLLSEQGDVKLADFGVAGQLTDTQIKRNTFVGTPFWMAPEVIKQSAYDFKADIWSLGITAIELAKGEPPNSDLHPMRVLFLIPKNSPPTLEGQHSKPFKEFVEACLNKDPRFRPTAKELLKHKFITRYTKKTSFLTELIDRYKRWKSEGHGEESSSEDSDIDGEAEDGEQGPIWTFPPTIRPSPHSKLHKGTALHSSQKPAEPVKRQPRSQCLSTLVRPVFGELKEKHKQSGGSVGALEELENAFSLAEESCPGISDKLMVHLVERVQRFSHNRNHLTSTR
Method in brief: as §1

[11] = target: T11, EPHA8 (Homo sapiens, UniProt P29322); conditions: estimated, abridged dose response curve, read-out: Kinase inhibitory activity EC50
T11 construct: purchased Invitrogen (SelectScreen service)
Method in brief: as §1

[12] = target: T12, MARK2 (Homo sapiens, UniProt Q7KZI7); conditions: estimated, abridged dose response curve, read-out: Kinase inhibitory activity EC50
T12 construct: purchased Invitrogen, Inc. (SelectScreen platform)
Method in brief: as §1

[13] = target: T13, PTK2B (FAK2, PYK2) (Homo sapiens, UniProt Q14289); conditions: estimated, abridged dose response curve, read-out: Kinase inhibitory activity EC50
T13 construct: purchased Invitrogen (SelectScreen service)
Method in brief: as §1

[14] = target: T14, CLK3 (Homo sapiens, UniProt P49761); conditions: estimated, abridged dose response curve, read-out: Kinase inhibitory activity EC50
T14 construct: purchased Invitrogen (SelectScreen platform)
T14 sequence (P49761 whole entry): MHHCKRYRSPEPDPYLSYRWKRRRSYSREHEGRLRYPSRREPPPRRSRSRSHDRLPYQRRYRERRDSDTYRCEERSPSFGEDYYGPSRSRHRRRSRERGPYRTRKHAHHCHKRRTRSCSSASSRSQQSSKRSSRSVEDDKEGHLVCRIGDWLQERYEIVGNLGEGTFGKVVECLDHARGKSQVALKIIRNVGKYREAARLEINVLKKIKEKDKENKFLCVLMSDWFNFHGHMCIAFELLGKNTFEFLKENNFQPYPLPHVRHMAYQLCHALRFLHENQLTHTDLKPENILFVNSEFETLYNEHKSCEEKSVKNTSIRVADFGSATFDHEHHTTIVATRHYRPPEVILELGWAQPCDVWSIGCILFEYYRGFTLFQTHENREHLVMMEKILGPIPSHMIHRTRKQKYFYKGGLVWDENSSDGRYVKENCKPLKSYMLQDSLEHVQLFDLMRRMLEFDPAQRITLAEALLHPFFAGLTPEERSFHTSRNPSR
Method in brief: as §1

[15] = target: T15, MST4 (Homo sapiens, UniProt Q9P289); conditions: estimated, abridged dose response curve, read-out: Kinase inhibitory activity EC50
T15 construct: purchased Invitrogen (SelectScreen platform)
Method in brief: as §1

[16] = target: T16, MET M1250T (Homo sapiens, UniProt P08581, M1250T); conditions: estimated, abridged dose response curve, read-out: Kinase inhibitory activity EC50
T16 construct: purchased Invitrogen (SelectScreen platform)
Method in brief: as §1

[17] = target: T17, PAK3 (Homo sapiens, UniProt O75914); conditions: estimated, abridged dose response curve, read-out: Kinase inhibitory activity EC50
T17 construct: purchased Invitrogen (SelectScreen platform)
T17 sequence (O75914 whole entry): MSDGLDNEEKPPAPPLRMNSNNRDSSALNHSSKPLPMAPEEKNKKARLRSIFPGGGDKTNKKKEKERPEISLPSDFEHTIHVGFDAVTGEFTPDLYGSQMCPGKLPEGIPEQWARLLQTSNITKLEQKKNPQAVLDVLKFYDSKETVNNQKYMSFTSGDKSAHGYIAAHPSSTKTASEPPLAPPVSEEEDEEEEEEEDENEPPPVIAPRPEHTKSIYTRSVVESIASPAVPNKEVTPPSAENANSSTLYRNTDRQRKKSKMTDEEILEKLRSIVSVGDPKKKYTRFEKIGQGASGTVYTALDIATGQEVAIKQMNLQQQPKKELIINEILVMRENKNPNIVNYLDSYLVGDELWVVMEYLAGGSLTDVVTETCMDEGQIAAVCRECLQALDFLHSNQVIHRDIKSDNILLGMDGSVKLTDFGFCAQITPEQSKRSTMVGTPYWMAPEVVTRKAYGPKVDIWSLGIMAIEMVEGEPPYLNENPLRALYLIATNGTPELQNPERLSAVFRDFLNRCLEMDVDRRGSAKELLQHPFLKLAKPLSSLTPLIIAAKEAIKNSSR
Method in brief: as §1

[18] = target: T18, CAMK1D (CaMKI delta) (Homo sapiens, UniProt Q8IU85); conditions: estimated, abridged dose response curve, read-out: Kinase inhibitory activity EC50
T18 construct: purchased Invitrogen, Inc. (SelectScreen platform)
Method in brief: as §1

[19] = target: T19, DAPK3 (ZIPK) (Homo sapiens, UniProt O43293); conditions: estimated, abridged dose response curve, read-out: Kinase inhibitory activity EC50
T19 construct: purchased Invitrogen, Inc. (SelectScreen platform)
Method in brief: as §1

[20] = target: T20, RPS6KA3 (RSK2) (Homo sapiens, UniProt P51812); conditions: estimated, abridged dose response curve, read-out: Kinase inhibitory activity EC50
T20 construct: purchased Invitrogen, Inc. (SelectScreen platform)
T20 sequence (P51812 whole entry): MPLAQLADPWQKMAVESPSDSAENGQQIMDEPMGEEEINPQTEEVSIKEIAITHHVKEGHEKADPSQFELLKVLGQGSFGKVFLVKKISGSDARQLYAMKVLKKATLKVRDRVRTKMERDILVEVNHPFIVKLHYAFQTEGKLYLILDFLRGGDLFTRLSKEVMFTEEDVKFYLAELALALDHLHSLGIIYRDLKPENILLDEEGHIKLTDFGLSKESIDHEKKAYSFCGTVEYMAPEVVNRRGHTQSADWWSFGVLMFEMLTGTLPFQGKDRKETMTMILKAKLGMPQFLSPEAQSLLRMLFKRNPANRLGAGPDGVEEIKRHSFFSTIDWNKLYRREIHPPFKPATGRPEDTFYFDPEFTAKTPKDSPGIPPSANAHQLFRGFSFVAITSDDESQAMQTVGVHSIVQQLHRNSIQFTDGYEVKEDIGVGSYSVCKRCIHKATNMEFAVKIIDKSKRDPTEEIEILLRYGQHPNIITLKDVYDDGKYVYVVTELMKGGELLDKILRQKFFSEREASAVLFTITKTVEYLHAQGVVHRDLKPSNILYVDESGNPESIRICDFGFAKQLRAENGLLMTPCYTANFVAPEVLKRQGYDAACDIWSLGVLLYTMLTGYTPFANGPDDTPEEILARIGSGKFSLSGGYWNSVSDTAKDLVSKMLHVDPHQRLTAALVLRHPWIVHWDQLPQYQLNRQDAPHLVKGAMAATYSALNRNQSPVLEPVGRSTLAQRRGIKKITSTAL
Method in brief: as §1

[21] = target: T21, NTRK2 (TRKB) (Homo sapiens, UniProt Q16620)
T21 construct: purchased Invitrogen (SelectScreen)
Method in brief: as §1

[22] = target: T22, DCAMKL2 (DCK2) (Homo sapiens, UniProt Q8N568); conditions: estimated, abridged dose response curve, read-out: Kinase inhibitory activity EC50
T22 construct: purchased Invitrogen, Inc. (SelectScreen platform)
Method in brief: as §1

[23] = target: T23, MAP2K2 (MEK2) (Homo sapiens, UniProt P36507); conditions: estimated, abridged dose response curve, read-out: Kinase inhibitory activity EC50
T23 construct: purchased Invitrogen (SelectScreen platform)
T23 sequence (P36507 whole entry): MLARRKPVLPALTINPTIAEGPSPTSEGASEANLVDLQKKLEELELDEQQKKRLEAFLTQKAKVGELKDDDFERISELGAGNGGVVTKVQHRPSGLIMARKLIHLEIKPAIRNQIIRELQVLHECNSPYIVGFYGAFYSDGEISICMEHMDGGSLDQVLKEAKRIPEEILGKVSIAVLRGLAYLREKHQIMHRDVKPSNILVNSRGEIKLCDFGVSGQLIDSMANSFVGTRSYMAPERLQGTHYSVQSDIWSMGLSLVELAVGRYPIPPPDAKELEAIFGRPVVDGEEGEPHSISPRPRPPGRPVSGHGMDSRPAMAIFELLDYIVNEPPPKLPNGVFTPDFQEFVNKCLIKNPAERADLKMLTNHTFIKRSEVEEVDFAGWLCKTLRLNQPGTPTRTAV
Method in brief: as §1

[24] = target: T24, CLK1 (Homo sapiens, UniProt P49759); conditions: estimated, abridged dose response curve, read-out: Kinase inhibitory activity EC50
T24 construct: purchased Invitrogen (SelectScreen platform)
Method in brief: as §1

[25] = target: T25, STK23 (MSSK1) (Homo sapiens, UniProt Q9UPE1); conditions: estimated, abridged dose response curve, read-out: Kinase inhibitory activity EC50
T25 construct: purchased Invitrogen, Inc. (SelectScreen service)
Method in brief: as §1

[26] = target: T26, MAPKAPK3 (Homo sapiens, UniProt Q16644); conditions: estimated, abridged dose response curve, read-out: Kinase inhibitory activity EC50
T26 construct: purchased Invitrogen, Inc. (SelectScreen platform)
T26 sequence (Q16644 whole entry): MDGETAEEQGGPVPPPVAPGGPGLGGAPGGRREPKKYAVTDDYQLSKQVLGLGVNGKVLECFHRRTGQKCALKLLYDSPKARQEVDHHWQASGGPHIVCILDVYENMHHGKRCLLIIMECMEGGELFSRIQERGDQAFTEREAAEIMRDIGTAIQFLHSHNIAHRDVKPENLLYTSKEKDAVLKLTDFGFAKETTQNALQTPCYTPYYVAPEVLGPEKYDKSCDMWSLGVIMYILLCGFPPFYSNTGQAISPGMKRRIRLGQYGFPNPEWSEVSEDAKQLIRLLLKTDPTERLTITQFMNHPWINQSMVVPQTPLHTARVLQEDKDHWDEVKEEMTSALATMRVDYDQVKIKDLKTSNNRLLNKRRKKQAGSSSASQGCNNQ
Method in brief: as §1

SMILES	EC50 [1]	EC50 [2]	EC50 [3]	EC50 [4]	EC50 [5]	EC50 [6]	EC50 [7]	EC50 [9]	EC50 [10]	EC50 [11]	EC50 [12]	EC50 [13]	EC50 [14]	EC50 [15]	EC50 [16]	EC50 [17]	EC50 [18]	EC50 [19]	EC50 [20]	EC50 [22]	also measured
CN(C)CCCNc1ccc2ncn3c4ccc5[nH]ncc5c4c(=O)c1c23 [Compound (IV)]	> 5 µM	> 5 µM	> 5 µM	2.81 µM	4.05 µM	> 5 µM	> 5 µM	0.06 µM	> 5 µM	4.15 µM	3.49 µM	> 5 µM	> 5 µM	> 5 µM	> 5 µM	> 5 µM	2.78 µM	0.973 µM	1.49 µM	> 5 µM	EC50 ([8]; NTRK3 (TRKC), estimated, abridged dose response curve, read-out: Kinase inhibitory activity EC50): 0.24 µM; EC50 ([21]; NTRK2 (TRKB), estimated, abridged dose response curve, read-out: Kinase inhibitory activity EC50): 0.78 µM; EC50 [23]: > 5 µM; EC50 [24]: 0.444 µM; EC50 [25]: > 5 µM; EC50 [26]: > 5 µM
CCN(CC)CCNc1ccc2ncn3c4ccc(O)cc4c(=O)c1c23 [Symadex, 5-(2-(diethylamino)ethylamino)-8-hydroxy-6H-imidazo[4,5,1-de]acridin-6-one, reference compound]	> 5 µM	> 5 µM	> 5 µM	> 5 µM	> 5 µM	> 5 µM	> 5 µM	0.083 µM	> 5 µM	3.35 µM	2.02 µM	> 5 µM	> 5 µM	1.58 µM	> 5 µM	> 5 µM	4 µM	> 5 µM	0.692 µM	> 5 µM	EC50 [8]: 3.72 µM; EC50 [21]: > 5 µM; EC50 [23]: > 5 µM; EC50 [24]: 2.18 µM; EC50 [25]: > 5 µM; EC50 [26]: > 5 µM

Reference: patent US20100292231A1, “Indazole Compounds for Treating Inflammatory Disorders, Demyelinating Disorders and Cancers” (priority 2007, published 2010)
